Key:
[1] = molecular target: T1, active BTK enzyme (Upstate 14-552) (Homo sapiens, UniProt Q06187); assay: In Vitro BTK Kinase Assay: Btk-PolyGAT-LS Assay; type: biochemical; details: ATP 10 μM, polyGAT 100 nM, BTK 0.25 nM, 30 minutes, TRF readout
T1 construct: purchased Upstate 14-552
How it was run: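 Active BTK (0.25 nM) phosphorylates fluorescein-polyGAT peptide (100 nM) with 10 µM ATP in Tris-HCl pH 7.5/MgCl2/DTT buffer, 30 min, EDTA stop. Phosphopeptide detected by TR-FRET with Tb-PY20 antibody after 45 min at room temperature; IC50 from four-parameter fit against DMSO and EDTA controls.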

[2] = test system: CD69 expression on CD19+ B cells in human whole blood; assay: In Vitro whole blood CD69 Assay; type: cell-based; details: B-cell; human heparinized whole blood, anti-human IgD stimulation overnight, percentage of CD19+ B cells expressing CD69, flow cytometry; read-out: IC50
Protocol: In Vitro whole blood CD69 Assay
Human heparinized venous blood from health donors was aliquoted into 96-well plate and “spiked” with serial dilutions of formula I compounds in DMSO or with DMSO without drug. The final concentration of DMSO in all wells was 0.1%. The plate was incubated at 37° C. for 30 min. Drug-containing samples were stimulated with […] mouse anti-human IgD-dextran (1A62) or […] polyclonal rabbit F(ab′)2 anti-human IgD. Phosphate-buffered saline (PBS) was added to the negative control unstimulated sample and the plates were incubated overnight (18 to 22 hours) at 37° C. Cells were stained with fluorochrome-conjugated anti-CD19 and anti-CD69 antibodies. Lyse/fix solution was used to remove red blood cells by hypotonic lysis and to fix the remaining cells, which were then analyzed by flow cytometry. CD19+ B cells were gated and analyzed for CD69 expression. The percentage of B cells expressing CD69 was plotted versus the log 10 of the concentration of the drug and the best-fit curves (variable Hill slope) were generated to obtain the IC50 value.

T1 sequence (Q06187 whole entry): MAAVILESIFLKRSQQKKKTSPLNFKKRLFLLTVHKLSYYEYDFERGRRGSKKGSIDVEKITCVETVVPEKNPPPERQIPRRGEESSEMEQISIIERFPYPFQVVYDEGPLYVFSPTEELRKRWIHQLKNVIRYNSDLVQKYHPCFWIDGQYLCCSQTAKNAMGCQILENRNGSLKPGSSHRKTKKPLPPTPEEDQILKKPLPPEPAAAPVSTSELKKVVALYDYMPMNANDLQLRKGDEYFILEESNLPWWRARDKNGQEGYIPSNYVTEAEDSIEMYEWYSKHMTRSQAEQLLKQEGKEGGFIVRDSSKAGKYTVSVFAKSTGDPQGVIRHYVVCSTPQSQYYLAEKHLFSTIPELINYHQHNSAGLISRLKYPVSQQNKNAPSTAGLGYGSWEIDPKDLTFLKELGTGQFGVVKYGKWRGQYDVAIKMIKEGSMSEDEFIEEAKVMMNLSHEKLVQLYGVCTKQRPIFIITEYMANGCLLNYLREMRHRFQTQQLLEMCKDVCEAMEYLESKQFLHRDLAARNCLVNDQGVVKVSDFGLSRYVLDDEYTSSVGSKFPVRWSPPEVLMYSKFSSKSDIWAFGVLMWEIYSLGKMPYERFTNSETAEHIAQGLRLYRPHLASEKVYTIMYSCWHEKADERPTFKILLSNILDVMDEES

Cc1cc(-c2ccncc2N2CCN(C(=O)/C=C/CN(C)C)CC2)ccc1CNC(=O)c1noc(C(C)(C)C)c1F [Example 95, (E)-5-(tert-butyl)-N-(4-(3-(4-(4-(dimethylamino)but-2-enoyl)piperazin-1-yl)pyridin-4-yl)-2-methylbenzyl)-4-fluoroisoxazole-3-carboxamide]
IC50 [1]: 1 to 10 nM | IC50 [2]: 100 to 1000 nM
